Experimental data published in BindingDB's records for doi:10.7270/Q2HQ3XB9 (Nmmlsc, 2008).
pEC50: −log10 of the molar value.

Molecular target: T1, Estrogen receptor (Homo sapiens, UniProt P03372)
T1 sequence (P03372 whole entry): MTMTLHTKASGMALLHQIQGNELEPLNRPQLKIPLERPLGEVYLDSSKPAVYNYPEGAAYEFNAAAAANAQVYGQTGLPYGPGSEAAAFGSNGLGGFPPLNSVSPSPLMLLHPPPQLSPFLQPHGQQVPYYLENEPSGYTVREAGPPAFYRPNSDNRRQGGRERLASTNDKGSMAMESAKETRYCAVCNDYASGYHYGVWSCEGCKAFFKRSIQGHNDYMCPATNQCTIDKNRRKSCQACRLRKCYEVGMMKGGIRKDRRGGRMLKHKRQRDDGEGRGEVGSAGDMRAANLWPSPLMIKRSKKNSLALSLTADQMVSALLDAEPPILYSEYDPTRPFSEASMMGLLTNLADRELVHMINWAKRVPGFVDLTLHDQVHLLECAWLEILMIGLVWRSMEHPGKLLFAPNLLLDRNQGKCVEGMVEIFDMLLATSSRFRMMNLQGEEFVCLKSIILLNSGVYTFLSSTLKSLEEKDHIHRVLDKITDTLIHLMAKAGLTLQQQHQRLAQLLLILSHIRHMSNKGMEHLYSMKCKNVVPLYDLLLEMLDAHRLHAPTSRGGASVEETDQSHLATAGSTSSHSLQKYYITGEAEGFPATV
Test: ERalpha binding competitors, concentration series, dose response, cell-based, Cos7 ERalpha-GFP, flow cytometry (AID 1223)

[1] = inactive by the depositor's call

Row | pEC50 [1] | pEC50 | SMILES
1 | 5.44 |  | COc1ccc(NS(=O)(=O)c2ccc3c(c2)[C@H]2C=CC[C@H]2[C@@H](c2ccc(C(=O)O)cc2)N3)cc1
2 |  | < 5.00 | CC(=O)c1ccc2c(c1)C1C=CCC1C(c1cccc([N+](=O)[O-])c1)N2 (stereo not given) [1-[4-(3-nitrophenyl)-3a,4,5,9b-tetrahydro-3H-cyclopenta[c]quinolin-8-yl]ethanone]
3 |  | 7.81 | COc1ccccc1N1CCN(C(=O)c2ccc3nc(-c4ccco4)c(-c4ccco4)nc3c2)CC1 [2,3-di-2-furyl-6-{[4-(2-methoxyphenyl)piperazin-1-yl]carbonyl}quinoxaline]
4 | 7.47 |  | O=C(OCC(=O)N1CCN(C(=O)c2ccco2)CC1)c1cc(-c2ccco2)nc2ccccc12 [2-(2-furanyl)-4-quinolinecarboxylic acid [2-[4-[2-furanyl(oxo)methyl]-1-piperazinyl]-2-oxoethyl] ester]
5 |  | < 5.00 | Cc1cc(C)cc(OCC(=O)Nc2ccc(N3CCCC3)cc2)c1 [2-(3,5-dimethylphenoxy)-N-(4-pyrrolidin-1-ylphenyl)acetamide]
6 | 7.35 |  | Cc1nnc(SCC(=O)NC(=O)NCc2ccco2)n1Cc1ccccc1 [2-[(4-benzyl-5-methyl-1,2,4-triazol-3-yl)sulfanyl]-N-(furan-2-ylmethylcarbamoyl)acetamide]
7 |  | < 5.00 | CCn1c(=NC(=O)c2ccc(-n3c(O)ccc3O)cc2)sc2c(OC)ccc(OC)c21 [4-[2,5-bis(oxidanylidene)pyrrolidin-1-yl]-N-(3-ethyl-4,7-dimethoxy-1,3-benzothiazol-2-ylidene)benzamide]
8 | 7.61 |  | Cn1ccnc1SCC(=O)Nc1ccc2nc(SCC(=O)NC3CC3)sc2c1 [MLS000085771]
9 | 8.01 |  | COc1ccc(CNC(=O)c2cc(-c3cccs3)on2)cc1 [MLS000087249]

Second part, the compound before the results:

Row | SMILES | pEC50 [1] | pEC50
10 | COc1cccc(NS(=O)(=O)c2ccc3c(c2)C2C=CCC2C(c2ccc(C(=O)O)cc2)N3)c1 (stereo not given) | 5.41 | 
11 | Brc1cc2c(cc1[C@@H]1Nc3ccccc3[C@@H]3C=CC[C@@H]31)OCO2 |  | 6.11
12 | O=C(Nc1cc(C(F)(F)F)ccc1N1CCOCC1)C1Cc2ccccc2CN1C(=O)c1ccco1 (stereo not given) [2-(2-furoyl)-N-[2-morpholino-5-(trifluoromethyl)phenyl]-3,4-dihydro-1H-isoquinoline-3-carboxamide] |  | 6.43
13 | COc1nc(-c2ccc(Cl)cc2)ccc1-c1noc(-c2ccco2)n1 [3-[6-(4-chlorophenyl)-2-methoxy-3-pyridinyl]-5-(2-furanyl)-1,2,4-oxadiazole] |  | 7.31
14 | CC(=O)Oc1ccc(C2Nc3c(C(=O)O)ccc([N+](=O)[O-])c3C3C=CCC32)cc1 (stereo not given) [4-(4-acetoxyphenyl)-9-nitro-3a,4,5,9b-tetrahydro-3H-cyclopenta[c]quinoline-6-carboxylic acid] |  | < 5.00
15 | O=C(COC(=O)CCC(=O)c1cccs1)NCc1ccco1 [4-keto-4-(2-thienyl)butyric acid [2-(2-furfurylamino)-2-keto-ethyl] ester] |  | 8.37
16 | Cc1cc(C)c2c(c1)[C@@H]1C=CC[C@@H]1[C@H](c1ccc(S(=O)(=O)N3CCOCC3)cc1)N2 [(3aS,4R,9bR)-6,8-dimethyl-4-[4-(morpholin-4-ylsulfonyl)phenyl]-3a,4,5,9b-tetrahydro-3H-cyclopenta[c]quinoline] |  | 7.35
17 | O=C(O)c1cc(Cl)c2c(c1)[C@@H]1C=CC[C@@H]1[C@H](c1ccc(S(=O)(=O)N3CCOCC3)cc1)N2 [(3aS,4R,9bR)-6-chloranyl-4-(4-morpholin-4-ylsulfonylphenyl)-3a,4,5,9b-tetrahydro-3H-cyclopenta[c]quinoline-8-carboxylic acid] | 6.00 | 
18 | C[C@]12CC[C@@H]3c4ccc(O)cc4[C@@H](O)C[C@H]3[C@@H]1CC[C@@H]2O [(6S,8R,9S,13S,14S,17S)-13-methyl-6,7,8,9,11,12,14,15,16,17-decahydrocyclopenta[a]phenanthrene-3,6,17-triol] |  | 7.44
19 | Cc1cc(C(=O)Nc2sc3c(c2C#N)CCC3)no1 [MLS000066325] | 8.50 | 
20 | COc1ccc(C(=O)NN=C(C)c2ccc3c(c2)C2C=CCC2C(c2ccccc2)N3)cc1 (stereo not given) [SMR000176871] |  | 5.84
